From US20220323406A1, “METHODS AND COMPOSITIONS FOR DIFFERENTIATING STEM CELLS” (Massachusetts Institute of Technology, priority 2019, published 2022)
Structures can show the parent of a compound that is named as a salt.

Legend:
[1] = tested on: ENR+CD organoids (ISC to Paneth cell differentiation); experiment: Primary screen: basal (non-stimulated) lysozyme secretion LYZ.NS, 2.5-D 384-well ENR+CD organoid differentiation; type: cell-based, mouse
Source text: (§1) High-throughput screening.

[2] = tested on: ENR+CD organoids (ISC to Paneth cell differentiation); experiment: Primary screen: CCh-stimulated lysozyme secretion LYZ.S, 2.5-D 384-well ENR+CD organoid differentiation; type: cell-based, mouse; details: primary screen
Source text: as §1

ENR+CD organoids = experiment: Primary screen: ATP (CellTiter-Glo 3D, CTG) cell number/viability, 2.5-D 384-well ENR+CD organoids;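 further: compounds given at plating and again on day 3 over a 6-day differentiation from ENR+CV stem-cell-enriched precursors, ATP measured on day 6, plate median as control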
[3] = primary screen, dose 0.08 uM, standard z score
[4] = primary screen, dose 0.40 uM, standard z score
[5] = primary screen, dose 2.00 uM, standard z score
[6] = primary screen, dose 10.00 uM, standard z score
[7] = primary screen; dose 0.08 uM; FC vs plate median
[8] = primary screen; dose 0.40 uM; FC vs plate median
[9] = primary screen; dose 2.00 uM; FC vs plate median
[10] = primary screen; dose 10.00 uM; FC vs plate median
[11] = primary screen, standard z score, dose 0.08 uM
[12] = primary screen, standard z score, dose 0.40 uM
[13] = primary screen, standard z score, dose 2.00 uM
[14] = primary screen, standard z score, dose 10.00 uM
[15] = primary screen, dose 0.08 uM, FC relative to plate median
[16] = primary screen, dose 0.40 uM, FC relative to plate median
[17] = primary screen, dose 2.00 uM, FC relative to plate median
[18] = primary screen, dose 10.00 uM, FC relative to plate median

| SMILES | Dose.FC.LYZ.NS ([1]; primary screen, dose 0.08 uM) [log2 fold change] | Dose.FC.LYZ.NS ([1]; primary screen, dose 0.40 uM) [log2 fold change] | Dose.FC.LYZ.NS ([1]; primary screen, dose 2.00 uM) [log2 fold change] | Dose.FC.LYZ.NS ([1]; primary screen, dose 10.00 uM) [log2 fold change] | Dose.FC.LYZ.S ([2]; dose 0.08 uM) [log2 fold change] | Dose.FC.LYZ.S ([2]; dose 0.40 uM) [log2 fold change] | Dose.FC.LYZ.S ([2]; dose 2.00 uM) [log2 fold change] | Dose.FC.LYZ.S ([2]; dose 10.00 uM) [log2 fold change] | Dose.FC.CTG (ENR+CD organoids; primary screen, dose 0.08 uM) [log2 fold change] | Dose.FC.CTG (ENR+CD organoids; primary screen, dose 0.40 uM) [log2 fold change] | Dose.FC.CTG (ENR+CD organoids; primary screen, dose 2.00 uM) [log2 fold change] | Dose.FC.CTG (ENR+CD organoids; primary screen, dose 10.00 uM) [log2 fold change] | Z.LYZ.NS (standard z score) ([1]; primary screen, dose 0.08 uM) | Z.LYZ.NS (standard z score) ([1]; primary screen, dose 0.40 uM) | Z.LYZ.NS (standard z score) ([1]; primary screen, dose 2.00 uM) | Z.LYZ.NS (standard z score) ([1]; primary screen, dose 10.00 uM) | also measured |
| --- | --- | --- | --- | --- | --- | --- | --- | --- | --- | --- | --- | --- | --- | --- | --- | --- | --- |
| O=C(NOC[C@H](O)CO)c1ccc(F)c(F)c1Nc1ccc(I)cc1F [PD0325901] |  |  |  |  |  |  |  |  |  |  |  |  |  |  |  |  | Z.LYZ.NS [1, 3]: −1.046; Z.LYZ.NS [1, 4]: −1.064; Z.LYZ.NS [1, 5]: −1.215; Z.LYZ.NS [1, 6]: −1.625; Dose.FC.LYZ.NS [1, 7]: −0.120 log2 fold change; Dose.FC.LYZ.NS [1, 8]: −0.122 log2 fold change; Dose.FC.LYZ.NS [1, 9]: −0.139 log2 fold change; Dose.FC.LYZ.NS [1, 10]: −0.187 log2 fold change; Dose.FC.LYZ.S ([2]; dose 0.08 uM, FC vs plate median): −0.212 log2 fold change; Dose.FC.LYZ.S ([2]; dose 0.40 uM, FC vs plate median): −0.219 log2 fold change; Dose.FC.LYZ.S ([2]; dose 2.00 uM, FC vs plate median): −0.227 log2 fold change; Dose.FC.LYZ.S ([2]; dose 10.00 uM, FC vs plate median): −0.269 log2 fold change; Dose.FC.CTG (ENR+CD organoids; [7]): −0.502 log2 fold change; Dose.FC.CTG (ENR+CD organoids; [8]): −1.155 log2 fold change; Dose.FC.CTG (ENR+CD organoids; [9]): −0.867 log2 fold change; Dose.FC.CTG (ENR+CD organoids; [10]): −0.963 log2 fold change |
| CCC(CC)CC1(C(=O)Nc2ccccc2SC(=O)C(C)C)CCCCC1 [Dalcetrapib (JTT-705, RO4607381)] | 0.055 | −0.037 | −0.034 | −0.074 | 0.049 | 0.104 | 0.098 | −0.113 | 0.112 | −0.006 | 0.079 | 0.136 |  |  |  |  | Z.LYZ.NS [1, 11]: 0.475; Z.LYZ.NS [1, 12]: −0.324; Z.LYZ.NS [1, 13]: −0.296; Z.LYZ.NS [1, 14]: −0.643; Z.CTG (ENR+CD organoids; [11]): 0.268; Z.CTG (ENR+CD organoids; [12]): −0.014; Z.CTG (ENR+CD organoids; [13]): 0.188; Z.CTG (ENR+CD organoids; [14]): 0.324 |
| CS(=O)(=O)c1ccc(-c2cnc(N)c(C(=O)Nc3ccccc3)n2)cc1 [VE-821] | 0.106 | 0.063 | 0.103 | −0.284 | 0.130 | 0.089 | −0.004 | −0.429 | 0.213 | 0.130 | −0.137 | −0.840 | 0.924 | 0.544 | 0.901 | −2.475 |  |
| CNC(=O)[C@H](Cc1c[nH]c2ccccc12)NC(=O)[C@@H](CC(=O)NO)CC(C)C [Ilomastat (GM6001, Galardin)] |  |  |  |  |  |  |  |  |  |  |  |  | 0.482 | −0.092 | 0.064 | −0.919 | Dose.FC.LYZ.NS (log2 fold change) ([1]; primary screen, dose 0.08 uM): 0.055; Dose.FC.LYZ.NS (log2 fold change) ([1]; primary screen, dose 0.40 uM): −0.011; Dose.FC.LYZ.NS (log2 fold change) ([1]; primary screen, dose 2.00 uM): 0.007; Dose.FC.LYZ.NS (log2 fold change) ([1]; primary screen, dose 10.00 uM): −0.106; Dose.FC.LYZ.S (log2 fold change) ([2]; dose 0.08 uM): 0.214; Dose.FC.LYZ.S (log2 fold change) ([2]; dose 0.40 uM): 0.117; Dose.FC.LYZ.S (log2 fold change) ([2]; dose 2.00 uM): 0.024; Dose.FC.LYZ.S (log2 fold change) ([2]; dose 10.00 uM): −0.078; Dose.FC.CTG (log2 fold change) (ENR+CD organoids; primary screen, dose 0.08 uM): 0.197; Z.CTG (standard z score) (ENR+CD organoids; primary screen, dose 0.08 uM): 0.470; Dose.FC.CTG (log2 fold change) (ENR+CD organoids; primary screen, dose 0.40 uM): 0.163; Z.CTG (standard z score) (ENR+CD organoids; primary screen, dose 0.40 uM): 0.389; Dose.FC.CTG (log2 fold change) (ENR+CD organoids; primary screen, dose 2.00 uM): 0.091; Z.CTG (standard z score) (ENR+CD organoids; primary screen, dose 2.00 uM): 0.216; Dose.FC.CTG (log2 fold change) (ENR+CD organoids; primary screen, dose 10.00 uM): −0.110; Z.CTG (standard z score) (ENR+CD organoids; primary screen, dose 10.00 uM): −0.264 |
| CCO.N#CC(=C(/N)Sc1ccccc1N)/C(C#N)=C(\N)Sc1ccccc1N [U0126-EtOH] | 0.099 | 0.019 | −0.045 | −0.117 | 0.114 | 0.075 | −0.071 | −0.165 | −0.350 | −0.514 | −0.476 | −0.790 | 0.859 | 0.163 | −0.389 | −1.021 | Z.CTG (standard z score) (ENR+CD organoids; primary screen, dose 0.08 uM): −0.835; Z.CTG (standard z score) (ENR+CD organoids; primary screen, dose 0.40 uM): −1.227; Z.CTG (standard z score) (ENR+CD organoids; primary screen, dose 2.00 uM): −1.138; Z.CTG (standard z score) (ENR+CD organoids; primary screen, dose 10.00 uM): −1.887 |
| O=C1NC(=O)/C(=C/c2cccc(C(F)(F)F)c2)S1 [SMI-4a] |  |  |  |  |  |  |  |  |  |  |  |  |  |  |  |  | Dose.FC.LYZ.NS [1, 15]: 0.022 log2 fold change; Z.LYZ.NS [1, 3]: 0.188; Dose.FC.LYZ.NS [1, 16]: −0.060 log2 fold change; Z.LYZ.NS [1, 4]: −0.524; Dose.FC.LYZ.NS [1, 17]: 0.032 log2 fold change; Z.LYZ.NS [1, 5]: 0.283; Dose.FC.LYZ.NS [1, 18]: −0.074 log2 fold change; Z.LYZ.NS [1, 6]: −0.643; Dose.FC.LYZ.S ([2]; dose 0.08 uM, FC relative to plate median): 0.036 log2 fold change; Dose.FC.LYZ.S ([2]; dose 0.40 uM, FC relative to plate median): −0.063 log2 fold change; Dose.FC.LYZ.S ([2]; dose 2.00 uM, FC relative to plate median): −0.042 log2 fold change; Dose.FC.LYZ.S ([2]; dose 10.00 uM, FC relative to plate median): −0.134 log2 fold change; Dose.FC.CTG (ENR+CD organoids; [15]): −0.153 log2 fold change; Z.CTG (ENR+CD organoids; [3]): −0.366; Dose.FC.CTG (ENR+CD organoids; [16]): −0.317 log2 fold change; Z.CTG (ENR+CD organoids; [4]): −0.758; Dose.FC.CTG (ENR+CD organoids; [17]): −0.332 log2 fold change; Z.CTG (ENR+CD organoids; [5]): −0.793; Dose.FC.CTG (ENR+CD organoids; [18]): −0.327 log2 fold change; Z.CTG (ENR+CD organoids; [6]): −0.781 |
| Cc1[nH]c2ccccc2c1CCNC(=O)c1cccs1 [CK-636] | 0.039 | −0.049 | −0.066 | −0.108 | 0.080 | −0.013 | 0.072 | −0.103 | 0.202 | −0.004 | −0.201 | −0.169 |  |  |  |  | Z.LYZ.NS [1, 11]: 0.336; Z.LYZ.NS [1, 12]: −0.427; Z.LYZ.NS [1, 13]: −0.573; Z.LYZ.NS [1, 14]: −0.944; Z.CTG (ENR+CD organoids; [11]): 0.483; Z.CTG (ENR+CD organoids; [12]): −0.010; Z.CTG (ENR+CD organoids; [13]): −0.479; Z.CTG (ENR+CD organoids; [14]): −0.404 |
| CN(C)CCOc1ccc(/C(=C(/CCCl)c2ccccc2)c2ccccc2)cc1 [Toremifene Citrate] | 0.051 | 0.060 | 0.030 | −0.198 | 0.078 | 0.229 | −0.034 | −0.283 | 0.344 | 0.119 | −1.012 | −1.396 | 0.446 | 0.522 | 0.258 | −1.721 |  |
